Molecules are shown by their SMILES.

One series relates to HEK293 cells. Description: CellTiter-Glo Luminescent Cell Viability Assay in HEK293 cells. The following applies: Homo sapiens, 168 h, 7 days incubation, CellTiter-Glo luminescence. The format is cell-based. An excerpt:
CellTiter-Glo™ Assay in HEK293 Cells
The CellTiter-Glo™ Luminescent Cell Viability Assay (Promega) is a homogeneous method of determining the number of viable cells in culture based on quantitation of the ATP present, which signals the presence of metabolically active cells.
HEK293 cells (human embryonic kidney cell line transformed by Adenovirus 5 fragments, ATCC-No. CRL 1573) were cultivated in Dulbecco's Modified Eagle Medium (DMEM) with Glutamax™ (Invitrogen, 31966-021), 5% Fetal Calf Serum (FCS, Sigma Cat-No. F4135 (FBS)), 100 Units/ml penicillin/100 μg/ml streptomycin (=Pen/Strep from Invitrogen Cat. No. 15140). For the assay the cells were seeded in 384 well plates, 5000 cells per well, in the same medium. The next day the test compounds were added in various concentrations ranging from 3 μM to 0.00015 μM (10 concentrations, 1:3 diluted). After 7 days the CellTiter-Glo™ assay was done according to the instructions of the manufacturer (CellTiter-Glo™ Luminescent Cell Viability Assay, from Promega). In brief: the cell-plate was equilibrated to room temperature for approximately 30 minutes and than the CellTiter-Glo™ reagent was added. The contents were carefully mixed for 15 minutes to induce cell lysis. After 45 minutes the luminescent signal was measured in Victor 2, (scanning multiwell spectrophotometer, Wallac).
• Medium: Dulbecco's Modified Eagle Medium (DMEM) with Glutamax™ (Invitrogen, 31966-021), 5% Fetal Calf Serum (FCS, Sigma Cat-No. F4135 (FBS)), Pen/Strep (Invitrogen Cat. No. 15140). • HEK293 (ATCC-No. CRL 1573): 5000 cells in 60 μl per well of 384 well plate (Greiner 781098, white plates) • Incubate 24 h at 37° C., 5% CO2
In general the dilution steeps are 1:3 • a) Add 8 μl of 10 mM stock solution of compound to 72 μl DMSO • b) dilute 9×1:3 (always 30 μl to 60 μl DMSO) in this DMSO dilution row (results in 10 wells with concentrations from 1000 μM to 0.06 μM) • c) dilute each concentration 1:4.8 (10 μl compound dilution to 38 μl medium) • d) dilute each concentration 1:10 (10 μl compound dilution to 90 μl medium) • e) add 10 μl of every concentration to 60 μl medium in the cell plate • resulting in final concentration of DMSO: 0.3% in every well • and resulting in final concentration of compounds from 3 μM to 0.00015 μM • Incubate 168 h (7 days) at 37° C., 5% CO2
• Add 30 μl CellTiter-Glo™ Reagent/well, • shake 15 minutes at room temperature • incubate further 45 minutes at room temperature without shaking.
• Victor 2 scanning multiwell spectrophotometer (Wallac), Luminescence mode • Determine IC50 with XL-fit (XLfit software (ID Business Solution Ltd., Guilford, Surrey, UK)).

Turning to `Cn1nccc1CC[S+]([O-])Cc1ccc(OCc2coc(/C=C/c3ccc(C(F)(F)F)cc3)n2)cc1` (centres unmarked) [Example 9, 4-{4-[2-(2-Methyl-2H-pyrazol-3-yl)-ethanesulfinylmethyl]-phenoxymethyl}-2-[2-(E)-(4-trifluoromethyl-phenyl)-vinyl]-oxazole], the melting point (commonly the temperature, or range, at which the solid turns liquid) is 172 to 174 °C. Besides, the IC50 (in general, the concentration at which inhibition is half-maximal) in the series on HEK293 cells is 250 to 1000 nM.

With `Cc1cc(OCc2coc(/C=C/c3ccc(Cl)cc3)n2)ccc1COCCc1ccnn1C` [Example 3, 2-[2-(E)-(4-Chloro-phenyl)-vinyl]-4-{3-methyl-4-[2-(2-methyl-2H-pyrazol-3-yl)-ethoxymethyl]-phenoxymethyl}-oxazole], the melting point was in the range of 106 to 107 °C. The same compound displayed an IC50 in the series on HEK293 cells of 5 to 250 nM.

In the series with HEK293 cells, `Cc1cc(OCc2coc(/C=C/c3ccc(C(F)(F)F)cc3F)n2)ccc1COCCc1ccnn1C` [Example 4, 2-[2-(E)-(2-Fluoro-4-trifluoromethyl-phenyl)-vinyl]-4-{3-methyl-4-[2-(2-methyl-2H-pyrazol-3-yl)-ethoxymethyl]-phenoxymethyl}-oxazole] came in with an IC50 of 5 to 250 nM.

For `Cc1cc(OCc2coc(/C=C/c3ccc(Cl)cc3)n2)ccc1C[S+]([O-])CCc1ccnn1C` (centres unmarked) [Example 6, 2-[2-(E)-(4-Chloro-phenyl)-vinyl]-4-{3-methyl-4-[2-(2-methyl-2H-pyrazol-3-yl)-ethanesulfinylmethyl]-phenoxymethyl}-oxazole], the melting point lay within 169 to 171 °C. The same compound yielded an IC50 in the series on HEK293 cells of 5 to 250 nM.

Compound `Cn1nccc1CCS(=O)(=O)Cc1ccc(OCc2coc(/C=C/c3ccc(C(F)(F)F)cc3)n2)cc1` [Example 10, 4-{4-[2-(2-Methyl-2H-pyrazol-3-yl)-ethanesulfonylmethyl]-phenoxymethyl}-2-[2-(4-trifluoromethyl-phenyl)-vinyl]-oxazole] gave a melting point of 204 °C.

With `Cc1cc(OCc2coc(/C=C/c3ccc(C(F)(F)F)cc3)n2)ccc1COCCc1ccnn1C` [Example 2, 4-{3-Methyl-4-[2-(E)-(2-methyl-2H-pyrazol-3-yl)-ethoxymethyl]-phenoxymethyl}-2-[2-(4-trifluoromethyl-phenyl)-vinyl]-oxazole], the melting point is 96 to 97 °C. In the series with HEK293 cells, this compound had an IC50 of 5 to 250 nM.

Turning to `Cc1cc(OCc2coc(/C=C/c3ccc(C(F)(F)F)cc3)n2)ccc1C[S+]([O-])CCc1ccnn1C` (centres unmarked) [Example 7, 4-{3-Methyl-4-[2-(2-methyl-2H-pyrazol-3-yl)-ethanesulfinylmethyl]-phenoxymethyl}-2-[2-(E)-(4-trifluoromethyl-phenyl)-vinyl]-oxazole], the melting point is 161 to 162 °C. The IC50 in the series on HEK293 cells is 5 to 250 nM.

Compound `Cc1cc(OCc2coc(/C=C/c3ccc(OC(F)(F)F)cc3)n2)ccc1C[S+]([O-])CCc1ccnn1C` (centres unmarked) [Example 5, 4-{3-Methyl-4-[2-(2-methyl-2H-pyrazol-3-yl)-ethanesulfinylmethyl]-phenoxymethyl}-2-[2-(E)-(4-trifluoromethoxy-phenyl)-vinyl]-oxazole] registered a melting point of 138 to 139 °C.

The compound `Cn1nccc1CC[S+]([O-])Cc1ccc(OCc2coc(/C=C/c3ccc(OC(F)(F)F)cc3)n2)cc1` (centres unmarked) [Example 8, 4-{4-[2-(2-Methyl-2H-pyrazol-3-yl)-ethanesulfinylmethyl]-phenoxymethyl}-2-[2-(E)-(4-trifluoromethoxy-phenyl)-vinyl]-oxazole] displayed a melting point of 144 to 146 °C. In addition, in the series on HEK293 cells, the IC50 fell in the range of 250 to 1000 nM.

`Cc1cc(OCc2coc(/C=C/c3ccc(OC(F)(F)F)cc3)n2)ccc1COCCc1ccnn1C` [Example 1, 4-{3-Methyl-4-[2-(E)-(2-methyl-2H-pyrazol-3-yl)-ethoxymethyl]-phenoxymethyl}-2-[2-(4-trifluoromethoxy-phenyl)-vinyl]-oxazole] had a melting point of 77 to 78 °C. Moreover, 95 nM corresponded to half-maximal inhibition in the series with HEK293 cells (IC50).
